Assays:
[1] = target: T1, NMDAR2A expressing HEK cell membranes (Homo sapiens, UniProt Q05586+Q12879); assay: NMDAR agonist assay, [3H]MK-801 binding, NMDAR2A; assay type: biochemical; design: key to NMDAR2A B: log EC50: 0=−; ≥1×10^−9 M (e.g., −8)=+; <1×10^−9 M (e.g., −10)=++; settings: 50 μM glutamate; for Emax: 0.25 h, read-out: NMDAR2A A: % maximal [3H]MK-801 binding relative to 1 mM glycine; for EC50: read-out: NMDAR2A B: log EC50 (converted)
T1 construct: expressed in transfected cells; host or cells: HEK cells (membrane extract)
T1 sequence (Q12879 23-1464, other chains not shown): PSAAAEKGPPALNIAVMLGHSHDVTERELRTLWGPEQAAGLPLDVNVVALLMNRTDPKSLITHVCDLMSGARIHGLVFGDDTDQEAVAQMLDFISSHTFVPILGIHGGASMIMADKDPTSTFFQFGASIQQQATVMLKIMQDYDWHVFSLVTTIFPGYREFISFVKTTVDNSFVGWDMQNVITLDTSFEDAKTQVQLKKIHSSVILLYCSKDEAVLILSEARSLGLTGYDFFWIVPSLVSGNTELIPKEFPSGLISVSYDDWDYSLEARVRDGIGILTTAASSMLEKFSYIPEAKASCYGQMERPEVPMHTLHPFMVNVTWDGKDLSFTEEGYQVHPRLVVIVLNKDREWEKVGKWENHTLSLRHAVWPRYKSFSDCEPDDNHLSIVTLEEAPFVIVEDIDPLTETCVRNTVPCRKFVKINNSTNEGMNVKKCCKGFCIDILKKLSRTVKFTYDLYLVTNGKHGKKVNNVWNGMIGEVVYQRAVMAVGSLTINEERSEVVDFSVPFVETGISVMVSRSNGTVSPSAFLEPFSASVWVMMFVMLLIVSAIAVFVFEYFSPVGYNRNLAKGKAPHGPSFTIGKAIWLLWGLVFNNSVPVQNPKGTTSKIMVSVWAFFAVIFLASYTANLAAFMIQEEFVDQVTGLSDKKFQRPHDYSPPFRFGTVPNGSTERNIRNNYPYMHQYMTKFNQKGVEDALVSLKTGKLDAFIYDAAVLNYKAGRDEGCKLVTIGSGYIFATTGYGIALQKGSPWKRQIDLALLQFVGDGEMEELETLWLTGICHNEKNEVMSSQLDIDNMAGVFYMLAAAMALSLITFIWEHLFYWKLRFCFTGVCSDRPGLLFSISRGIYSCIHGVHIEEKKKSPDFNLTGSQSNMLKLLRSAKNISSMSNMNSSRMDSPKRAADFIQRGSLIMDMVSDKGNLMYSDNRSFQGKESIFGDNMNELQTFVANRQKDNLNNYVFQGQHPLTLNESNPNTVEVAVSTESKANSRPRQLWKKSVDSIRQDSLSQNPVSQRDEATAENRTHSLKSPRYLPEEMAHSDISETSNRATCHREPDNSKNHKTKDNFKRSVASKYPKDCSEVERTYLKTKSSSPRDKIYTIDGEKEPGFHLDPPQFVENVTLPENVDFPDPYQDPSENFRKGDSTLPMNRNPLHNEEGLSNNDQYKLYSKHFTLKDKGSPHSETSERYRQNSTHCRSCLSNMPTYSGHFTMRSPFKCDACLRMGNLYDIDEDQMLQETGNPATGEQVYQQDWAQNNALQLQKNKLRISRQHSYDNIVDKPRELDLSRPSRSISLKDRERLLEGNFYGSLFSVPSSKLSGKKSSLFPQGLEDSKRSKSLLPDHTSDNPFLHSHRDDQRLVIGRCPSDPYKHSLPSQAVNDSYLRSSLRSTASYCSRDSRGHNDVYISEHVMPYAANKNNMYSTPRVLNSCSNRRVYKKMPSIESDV
Method: (§1) Assays were conducted as described by Moskal et al., “GLYX-13: a monoclonal antibody-derived peptide that acts as an N-methyl-D-aspartate receptor modulator,” Neuropharmacology, 49, 1077-87, 2005. These studies were designed to determine if the test compounds act to facilitate NMDAR activation in NMDAR2A, NMDAR2B, NMDAR2C or NMDAR2D expressing HEK cell membranes as measured by increases in [^3H]MK-801 binding.
(§2) In the assay, 300 μg of NMDAR expressing HEK cell membrane extract protein was preincubated for 15 minutes at 25° C. in the presence of saturating concentrations of glutamate (50 μM) and varying concentrations of test compound (1×10^−15 M-1×10^−7 M), or 1 mM glycine. Following the addition of 0.3 μCi of [^3H]MK-801 (22.5 Ci/mmol), reactions were again incubated for 15 minutes at 25° C. (nonequilibrium conditions). Bound and free [^3H]MK-801 were separated via rapid filtration using a Brandel apparatus.
(§3) In analyzing the data, the DPM (disintegrations per minute) of [^3H]MK-801 remaining on the filter were measured for each concentration of test compound or for 1 mM glycine. The DPM values for each concentration of a ligand (N=2) were averaged. The baseline value was determined from the best fit curve of the DPM values modeled using the GraphPad program and the log(agonist) vs. response(three parameters) algorithm was then subtracted from all points in the dataset. The % maximal [^3H]MK-801 binding was then calculated relative to that of 1 mM glycine: all baseline subtracted DPM values were divided by the average value for 1 mM glycine. The EC50 and % maximal activity were then obtained from the best fit curve of the % maximal [^3H]MK-801 binding data modelled using the GraphPad program and the log(agonist) vs. response(three parameters) algorithm.
(§4) The tables below summarize the results for the wild type NMDAR agonists NMDAR2A, NMDAR2B, NMDAR2C, and NMDAR2D, and whether the compound is not an agonist (−), is an agonist (+), or is a strong agonist (++), where column A is based on the % maximal [^3H]MK-801 binding relative to 1 mM glycine (−=0; <100%=+; and >100%=++); and column B is based on log EC50 values (0=−; ≥1×10^−9 M (e.g., −8)=+; and <1×10^−9 M (e.g., −10)=++).

[2] = target: T2, NMDAR2A expressing HEK cell membranes (Homo sapiens, UniProt Q12879); assay: NMDAR agonist assay, [3H]MK-801 binding, NMDAR2A; assay type: biochemical; design: key to NMDAR2A B: log EC50: 0=−; ≥1×10^−9 M (e.g., −8)=+; <1×10^−9 M (e.g., −10)=++; settings: 50 μM glutamate
T2 construct: expressed in transfected cells; host or cells: HEK cells (membrane extract)
T2 sequence (Q12879 23-1464, other chains not shown): as above
Method: as §1, §2, §3, §4

[3] = target: T3, NMDAR2B expressing HEK cell membranes (Homo sapiens, UniProt Q05586+Q13224); assay: NMDAR agonist assay, [3H]MK-801 binding, NMDAR2B; assay type: biochemical; settings: 50 μM glutamate; for EC50: read-out: NMDAR2B B: log EC50 (converted); for Emax: 0.25 h, read-out: NMDAR2B A: % maximal [3H]MK-801 binding relative to 1 mM glycine
T3 construct: expressed in transfected cells; host or cells: HEK cells (membrane extract)
T3 sequence (Q13224 27-1484, other chains not shown): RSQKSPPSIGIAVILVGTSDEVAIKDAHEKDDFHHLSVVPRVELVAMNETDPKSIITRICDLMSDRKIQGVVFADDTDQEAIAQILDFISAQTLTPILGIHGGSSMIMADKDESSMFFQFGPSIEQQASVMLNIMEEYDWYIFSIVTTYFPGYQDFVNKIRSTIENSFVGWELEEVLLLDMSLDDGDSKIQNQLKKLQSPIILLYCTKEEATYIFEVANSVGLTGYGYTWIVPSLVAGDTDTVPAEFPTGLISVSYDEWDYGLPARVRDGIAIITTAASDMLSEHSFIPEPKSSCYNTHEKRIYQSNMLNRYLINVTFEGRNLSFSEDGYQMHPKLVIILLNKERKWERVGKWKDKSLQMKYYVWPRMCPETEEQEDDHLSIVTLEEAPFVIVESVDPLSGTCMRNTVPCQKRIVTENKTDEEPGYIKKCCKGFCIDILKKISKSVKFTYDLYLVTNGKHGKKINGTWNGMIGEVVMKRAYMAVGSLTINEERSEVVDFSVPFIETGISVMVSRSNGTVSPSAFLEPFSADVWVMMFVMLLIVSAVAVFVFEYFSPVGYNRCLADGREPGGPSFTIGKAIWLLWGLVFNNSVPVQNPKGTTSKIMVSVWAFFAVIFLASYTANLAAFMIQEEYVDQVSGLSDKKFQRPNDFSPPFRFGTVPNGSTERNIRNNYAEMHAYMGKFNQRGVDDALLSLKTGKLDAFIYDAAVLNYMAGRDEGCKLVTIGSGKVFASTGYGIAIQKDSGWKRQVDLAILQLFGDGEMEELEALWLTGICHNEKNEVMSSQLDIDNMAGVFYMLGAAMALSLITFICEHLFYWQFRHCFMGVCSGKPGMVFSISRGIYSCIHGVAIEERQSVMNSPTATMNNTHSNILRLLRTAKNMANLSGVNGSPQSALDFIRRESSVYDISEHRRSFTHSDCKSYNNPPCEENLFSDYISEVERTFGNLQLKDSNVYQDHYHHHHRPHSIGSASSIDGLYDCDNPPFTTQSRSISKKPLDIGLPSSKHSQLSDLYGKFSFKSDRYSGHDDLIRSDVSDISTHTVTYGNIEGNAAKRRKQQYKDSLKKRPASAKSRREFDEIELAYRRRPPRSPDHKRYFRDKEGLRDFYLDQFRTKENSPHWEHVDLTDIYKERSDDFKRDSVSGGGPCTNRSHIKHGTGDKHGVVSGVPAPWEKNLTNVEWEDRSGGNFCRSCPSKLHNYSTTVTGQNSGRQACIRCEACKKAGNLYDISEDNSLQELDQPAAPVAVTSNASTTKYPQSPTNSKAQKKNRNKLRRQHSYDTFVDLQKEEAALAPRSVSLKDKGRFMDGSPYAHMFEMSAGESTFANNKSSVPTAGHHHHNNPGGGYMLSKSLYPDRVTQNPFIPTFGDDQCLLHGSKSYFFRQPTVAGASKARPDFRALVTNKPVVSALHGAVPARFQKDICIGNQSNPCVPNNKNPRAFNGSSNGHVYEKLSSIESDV
Method: as §1, §2, §3, §4

[4] = IV pharmacokinetics; design: species or system Sprague Dawley rats; settings: Sprague Dawley, in vivo, rat, 2 mg/kg, normal saline; for Vd: read-out: Vss
Method: Sprague Dawley rats were dosed intravenously using a normal saline formulation containing 2 mg/kg of the compounds identified in the below table. The table below summarizes the results of the IV pharmacokinetics.

[5] = Oral pharmacokinetics (plasma, brain, CSF); assay type: in vivo, Sprague Dawley rats; settings: rat, per os, 10 mg/kg; for AUC(0-t) / bioavailability / Tmax / Cmax: Sprague Dawley, plasma, po; for Tmax: normal saline
Method: In another experiment, Sprague Dawley rats were dosed per os using a normal saline formulation containing 10 mg/kg of the compounds identified in the table below. Plasma, brain, and CSF samples were analyzed at various time points over a 24 hour period. The table below summarizes the results of the oral pharmacokinetics.

[6] = tested on: Sprague Dawley rats; assay: Porsolt forced swim test; assay type: in vivo; settings: 1 h post-dose, 20 mg/kg, dosed 3 times (24 h, 5 h and 1 h) prior to testing
Method: A non-clinical in vivo pharmacology study (Porsolt assay) was performed to measure antidepressant-like effects. A negative control (0.5% sodium carboxymethyl cellulose in 0.9% sterile saline vehicle) and a positive control (fluoxetine) are shown for comparison against test compound. The study allowed for the evaluation of the effects of each compound on the Porsolt forced swim test as assessed by the rats' response (reduced floating time) during a 5-minute swimming test.
(§5) Male 2-3 month old Sprague Dawley rats were used (Harlan, Indianapolis, IN). Rats were housed in Lucite cages with aspen wood chip bedding, maintained on a 12:12 light:dark cycle (lights on at 5 AM), and given ad libitum access to Purina lab chow (USA) and tap water throughout the study.
The Porsolt forced swim test adapted for use in rats was performed as described by Burgdorf et al., (The long-lasting antidepressant effects of rapastinel (GLYX-13) are associated with a metaplasticity process in the medial prefrontal cortex and hippocampus. Neuroscience 308:202-211, 2015). Animals were placed in a 46 cm tall×20 cm in diameter clear glass tube filled to 30 cm with tap water (23±1° C.) for 15 min on the first day (habituation) and 5 min on the subsequent test day. Positive control fluoxetine was dosed 3 times (24 h, 5 h and 1 h) prior to testing. Animals were tested 1 h or 24 h post-dosing with the test compounds or vehicle. Animals received a 15 min habituation session 1 day before the 5 min test. Water was changed after every other animal. Animals were videotaped, and floating time as defined as the minimal amount of effort required to keep the animals head above water was scored offline by a blinded experimenter with high inter-rater reliability (Pearson's r>0.9).
Each compound tested at dose level shown. Significance vs. vehicle group for each experiment is marked. […] A compound marked “No” was not statistically significant from vehicle. Data was averaged for test compound and vehicle groups (N approximately 8 per group) and the percent reduction in floating for group treated with test compound relative to group treated with vehicle is shown.

[7] = tested on: Sprague Dawley rats; assay: Bennett model of mechanical analgesia (sciatic nerve chronic constriction injury); assay type: in vivo; settings: 150 mg/kg PO
Method: The Bennett model of mechanical analgesia is used to assess the analgesic effects of compounds as measured by paw withdrawal threshold. Bennett G J, Xie Y K, “A peripheral mononeuropathy in rat that produces disorders of pain sensation like those seen in man,” Pain 33:87-107, 1988. […] Vehicle animals receive the surgery and then receive vehicle rather than test compound. Animals were tested 1 hr, 24 h and 1 wk post-test compound or vehicle administration.
as §5, with “used. Harlan was the supplier for all studies.” for “used (Harlan, Indianapolis, IN).”
Rats were anesthetized using inhaled isoflurane (2.5%). Sciatic nerve chronic constriction nerve injury surgery was performed as previously described (Bennett and Xie, 1988). An incision (˜1.5 cm in length) was made with a scalpel blade dorsally through skin on the right hind limb, parallel and posterior to femur. Using a small pointed hemostat, the biceps femoris and gluteus superficialis muscles were separated. Using curved blunt forceps, the common sciatic nerve was isolated and exposed. For the mechanical analgesia studies, the whole sciatic nerve was ligated. Using hemostats/forceps and chromic gut (5-0), the nerve was loosely ligated with a square knot; 3 ligatures, 1 mm apart were placed on the nerve. […] Testing occurred approximately 2 weeks post-surgery.
During testing, rats were acclimated to the surface of a suspended wire mesh grid (1 cm×1 cm, with the wire being 0.3 cm in diameter) for 15-20 min. Starting from the smallest, each Von Frey filament was pressed perpendicularly to the plantar surface of the affected (ipsilateral) hind paw until slightly bent and then held for 6 second. If an obvious hind paw withdrawal or a flinching behavior immediately after the withdrawal of the filament was not observed, the next larger filament was used in the same manner. In case of a response, a lower filament was used. This was repeated until six responses were collected.
For all studies, animals were baselined prior to study start to test for allodynia (defined as a paw withdrawal threshold under 5). A subset of animals was tested with gabapentin (150 mg/kg, PO) to ensure at least 50% analgesia. Once it was confirmed animals were ready for study initiation, animals were balanced across groups. All study investigators were blind to treatment conditions. Animals were dosed with 0.1, 1, 10, or 30 mg/kg of test compound via oral gavage (PO), control sets of animals were dosed with gabapentin (150 mg/kg, PO) or vehicle (0.5% Na-CMC in 0.9% sterile saline, PO). Testing occurred 1 h post-dosing with animals retested 24 hrs and 1 week post-dosing. The percent analgesia calculations for each animal were made using the following equation: % analgesia=[(log(x)−y)/((log (z)−y)]*100, where x=the paw withdrawal threshold for the drug-treated animal in grams, y=the average of the log(x) values for the vehicle treated group, and z=the paw withdrawal threshold for naïve animals in grams (historical value of 15 used). The results for Compound AA-2, where the percentage of analgesia is measured at 1 hour, 24 hours, and 1 week after compound administration are as follows: for 0.1 mg/kg dose: 22.3% at 1 h, 1.6% at 24 h, and 2.3% at 1 wk; for 1 mg/kg dose: 19.2% at 1 h, 10.7% at 24 h, and 11.0% at 1 wk; for 10 mg/kg dose: 38.1% at 1 h, 24.3% at 24 h, and 41.4% at 1 wk; and for 30 mg/kg dose: 24.4% at 1 h, 8.7% at 24 h, and 34.5% at 1 wk.

SMILES | Emax [1] | NMDAR2A B: log EC50 [2] | EC50 [3] | Emax [3] | AUC(0-t) [4] | C0 [4] | clearance [4] | half-life [4] | Vd [4] | AUC(0-t) [5] | bioavailability [5] | Tmax [5] | Cmax [5] | CSF Cmax [5] | Brain Cmax [5] | EC50 [1] | further results
C[C@@H](O)[C@@H](C(=O)NCc1ccccc1)N1CC2(CCNC(=O)C2)C1=O (single isomer, unassigned) [CB] | 0% | − | < 1 nM | < 100% | 1320 ng·h/mL | 4320 ng/mL | 25.3 mL/min/kg | 106 min | 1.2 L/kg | 297 ng·h/mL | 5% | 30 min | 143 ng/mL | 31.02 ng/mL | 7.38 ng/mL |  | 
C[C@@H](O)[C@@H](C(=O)N(C)C)N1CC2(CCNC(=O)C2)C1=O (single isomer, unassigned) [CC] |  | − | < 1 nM | < 100% | 2130 ng·h/mL | 7930 ng/mL | 15.7 mL/min/kg | 127 min | 0.5 L/kg | 701 ng·h/mL | 7% | 25.2 min | 191 ng/mL | 0 ng/mL | 0 ng/mL |  | NMDAR2A A: % maximal [3H]MK-801 binding relative to 1 mM glycine [2]: − (−=0)
COc1ccc(CN2CC3(CCN(C)C(=O)C3)C2=O)cc1 (single isomer, unassigned) [CI, 2-(4-methoxybenzyl)-7-methyl-2,7-diazaspiro[3.5]nonane-1,6-dione] | < 100% |  | < 1 nM | < 100% | 1040 ng·h/mL | 2120 ng/mL | 32 mL/min/kg | 25.2 min | 0.91 L/kg | 5060 ng·h/mL | 97% | 15 min | 5050 ng/mL | 1113.94 ng/mL | 996.66 ng/mL | < 1 nM | 
CCN1CCC2(CC1=O)CN(Cc1ccc(OC)cc1)C2=O (single isomer, unassigned) [CL, 7-ethyl-2-(4-methoxybenzyl)-2,7-diazaspiro[3.5]nonane-1,6-dione] | < 100% |  | < 1 nM | < 100% | 772 ng·h/mL | 2690 ng/mL | 41.7 mL/min/kg | 12.6 min | 0.7 L/kg | 1430 ng·h/mL | 37% | 15 min | 1800 ng/mL | 866.42 ng/mL | 707.6 ng/mL | < 1 nM | 
CNCCC(Oc1ccc(C(F)(F)F)cc1)c1ccccc1 (centres unmarked) [Fluoxetine, fluoxetine, reference compound] |  |  |  |  |  |  |  |  |  |  |  |  |  |  |  |  | % reduction in float time [6]: 54%; Significance vs. vehicle [6]: Yes (found to be statistically significant (p<=0.05) from vehicle at dose level shown)
NCC1(CC(=O)O)CCCCC1 [gabapentin, reference compound] |  |  |  |  |  |  |  |  |  |  |  |  |  |  |  |  | % analgesia, for the study ([7]; 1 week post-administration): under 5%; % analgesia, example (typical) control value ([7]; 1 wk): 0%; % analgesia, example (typical) control value ([7]; 1 h): 72%; % analgesia, for the study ([7]; 1 h post-administration): at least 50%; % analgesia, example (typical) control value ([7]; 24 h): 16%; % analgesia, for the study ([7]; 24 h post-administration): under 5%
